Active and inactive are the calls of the source. No cut-off for these calls is given here.
Experiments:
[1] = tested on: Vesicular stomatitis virus; assay: Antiviral activity against vesicular stomatitis virus infected in human WISH cells; format: functional; settings: for EC50: read-out: ED50 (the source's name)
WISH = assay: Cytotoxicity against human WISH cells; format: cell-based
[2] = Selectivity index, ratio of toxic concentration for human WISH cells to ED50 for vesicular stomatitis virus infected in human WISH cells; format: toxicity, cell-based; settings: read-out: Selectivity Index

O=c1[nH]c(=O)n([C@@H]2O[C@H](CO)[C@@H](O)[C@H]2O)c2no[n+]([O-])c12
EC50 [1]: 78 µM
Activity (WISH): 2095 µmol/L
selectivity ratio [2]: 26.9

CCn1c(=O)c2c(no[n+]2[O-])n([C@@H]2O[C@H](COC(C)=O)[C@@H](OC(C)=O)[C@H](OC(C)=O)[C@H]2OC(C)=O)c1=O
EC50 [1]: 1210 µM
Activity (WISH): 1345 µmol/L

CC(=O)OC[C@H]1O[C@@H](n2c(=O)n(C)c(=O)c3c2no[n+]3[O-])[C@H](OC(C)=O)[C@@H]1OC(C)=O
EC50 [1]: 346 µM
Activity (WISH): 1460 µmol/L

O=c1[nH]cnc2c1ncn2[C@H]1CC[C@@H](CO)O1 [DIDANOSINE]
EC50 [1]: 792 µM
Activity (WISH): 2646 µmol/L
selectivity ratio [2]: 3.34

CC(=O)OCCOCn1c(=O)n(C)c(=O)c2c1no[n+]2[O-]
EC50 [1]: 650 µM
Activity (WISH): 2077 µmol/L

O=c1[nH]c(=O)n([C@@H]2O[C@H](COCc3ccccc3)[C@@H](OCc3ccccc3)[C@H]2OCc2ccccc2)c2no[n+]([O-])c12
EC50 [1]: 736 µM
Activity (WISH): 650 µmol/L

CCn1c(=O)c2c(no[n+]2[O-])n(COC(COC(C)=O)COC(C)=O)c1=O
EC50 [1]: 651 µM
Activity (WISH): 1475 µmol/L

Cn1c(=O)c2c(no[n+]2[O-])n([C@@H]2O[C@H](COCc3ccccc3)[C@@H](OCc3ccccc3)[C@H]2OCc2ccccc2)c1=O
EC50 [1]: 473 µM
Activity (WISH): 1055 µmol/L

CC(=O)OC[C@H]1O[C@@H](n2c(=O)n(C)c(=O)c3c2no[n+]3[O-])[C@H](OC(C)=O)[C@H]1OC(C)=O
ED50 [1]: inactive
Activity (WISH): 477 µmol/L

CC(=O)OC[C@H]1O[C@H](n2c(=O)[nH]c(=O)c3c2no[n+]3[O-])[C@@H](OC(C)=O)[C@@H]1OC(C)=O
EC50 [1]: 691 µM
Activity (WISH): 398 µmol/L

Nc1nc2c(ncn2COCCO)c(=O)[nH]1 [ACYCLOVIR]
EC50 [1]: 1410 µM
Activity (WISH): 3414 µmol/L
selectivity ratio [2]: 2.4

CC(=O)OCCOCn1c(=O)[nH]c(=O)c2c1no[n+]2[O-]
EC50 [1]: 651 µM
Activity (WISH): 2083 µmol/L

O=c1[nH]c(=O)n(COCCO)c2no[n+]([O-])c12
EC50 [1]: 636 µM
Activity (WISH): 2561 µmol/L

O=c1[nH]c(=O)n(COC(CO)CO)c2no[n+]([O-])c12
EC50 [1]: 555 µM
Activity (WISH): 2279 µmol/L

CC(=O)OC[C@@H]1O[C@@H](n2c(=O)n(C)c(=O)c3c2no[n+]3[O-])[C@H](OC(C)=O)[C@H]1OC(C)=O
EC50 [1]: 135 µM
Activity (WISH): 300 µmol/L

CC(=O)OC[C@@H]1O[C@@H](n2c(=O)[nH]c(=O)c3c2no[n+]3[O-])[C@H](OC(C)=O)[C@H]1OC(C)=O
EC50 [1]: 154 µM
Activity (WISH): 380 µmol/L

Cn1c(=O)c2c(no[n+]2[O-])n([C@@H]2O[C@H](COCc3ccccc3)[C@@H](OCc3ccccc3)[C@@H]2F)c1=O
EC50 [1]: 1500 µM
Activity (WISH): 10 µmol/L

CCn1c(=O)c2c(no[n+]2[O-])n([C@H]2O[C@H](COC(C)=O)[C@@H](OC(C)=O)[C@@H]2OC(C)=O)c1=O
EC50 [1]: 574 µM
Activity (WISH): 1411 µmol/L

CC(=O)OC[C@H]1O[C@H](n2c(=O)n(C)c(=O)c3c2no[n+]3[O-])[C@@H](OC(C)=O)[C@@H]1OC(C)=O
ED50 [1]: inactive
Activity (WISH): 378 µmol/L

CCn1c(=O)c2c(no[n+]2[O-])n([C@@H]2O[C@H](COC(C)=O)[C@@H](OC(C)=O)[C@H]2OC(C)=O)c1=O
EC50 [1]: 1230 µM
Activity (WISH): 377 µmol/L

CCn1c(=O)c2c(no[n+]2[O-])n([C@@H]2O[C@H](COCc3ccccc3)[C@@H](OCc3ccccc3)[C@H]2OCc2ccccc2)c1=O
EC50 [1]: 498 µM
Activity (WISH): 1026 µmol/L

CCn1c(=O)c2c(no[n+]2[O-])n([C@@H]2O[C@H](COC(C)=O)[C@H](OC(C)=O)[C@H]2OC(C)=O)c1=O
EC50 [1]: 1040 µM
Activity (WISH): 356 µmol/L

CC(=O)OC[C@H]1O[C@@H](n2c(=O)[nH]c(=O)c3c2no[n+]3[O-])[C@H](OC(C)=O)[C@@H](OC(C)=O)[C@@H]1OC(C)=O
ED50 [1]: inactive
Activity (WISH): 1300 µmol/L

CC(=O)OC[C@H]1O[C@@H](n2c(=O)[nH]c(=O)c3c2no[n+]3[O-])[C@H](OC(C)=O)[C@@H]1OC(C)=O
EC50 [1]: 345 µM
Activity (WISH): 1459 µmol/L

CC(=O)OC[C@H]1O[C@@H](n2c(=O)[nH]c(=O)c3c2no[n+]3[O-])[C@H](OC(C)=O)[C@H]1OC(C)=O
ED50 [1]: inactive
Activity (WISH): 387 µmol/L

CCn1c(=O)c2c(no[n+]2[O-])n(COCCOC(C)=O)c1=O
ED50 [1]: inactive
Activity (WISH): 408 µmol/L

CCn1c(=O)c2c(no[n+]2[O-])n([C@@H]2O[C@@H](COC(C)=O)[C@H](OC(C)=O)[C@H]2OC(C)=O)c1=O
ED50 [1]: inactive
Activity (WISH): 20 µmol/L

From ChEMBL document CHEMBL3351685, “Synthesis and quantitative structure-activity relationship (QSAR) analysis of some novel oxadiazolo[3,4-d]pyrimidine nucleosides derivatives as antiviral agents” (Bioorg Med Chem Lett, 2015)
